How the values were obtained:
[1] = biological target: PERK kinase (Homo sapiens (Human), UniProt Q9NZJ5); experiment: Biochemical assay for PERK (coupled pyruvate kinase/lactate dehydrogenase assay); settings: 1 mM ATP, rate from 2-3 h time frame
Procedure: Activity of PERK kinase was determined spectroscopically using a coupled pyruvate kinase/lactate dehydrogenase assay that continuously monitors the ATP hydrolysis-dependent oxidation of NADH (e.g., Schindler et al. Science (2000) 289: 1938-1942). Assays were conducted in 384-well plates (100 μL final volume) using 10 nM PERK (from Beryllium), 0.25 mg/mL Myelin Basic Protein substrate, 1.5 units pyruvate kinase, 2.1 units lactate dehydrogenase, 1 mM phosphoenol pyruvate, 0.28 mM NADH and 1 mM ATP in assay buffer (100 mM Tris, pH 7.5, 15 mM MgCl2, 0.5 mM DTT, 0.004% (w/v) BSA, and 0.004% Triton X-100). Inhibition of PERK was measured by adding serial diluted test compound (final assay concentration of 1% DMSO). A decrease in absorption at 340 nm was monitored continuously for 6 hours at 30° C. on a multi-mode microplate reader (BioTek). The reaction rate was calculated using the 2-3 h time frame. The reaction rate at each concentration of compound was converted to percent inhibition using controls (i.e. reaction with no test compound and reaction with a known inhibitor) and IC50 values were calculated using software routines in Prism (GraphPad software).

[2] = biological target: GCN2 kinase (Homo sapiens (Human), UniProt Q9P2K8); experiment: Biochemical assay for GCN2 (TR-FRET kinase activity assay); settings: 1 mM ATP, 3-hour incubation
GCN2 kinase, sequence (Q9P2K8 whole entry): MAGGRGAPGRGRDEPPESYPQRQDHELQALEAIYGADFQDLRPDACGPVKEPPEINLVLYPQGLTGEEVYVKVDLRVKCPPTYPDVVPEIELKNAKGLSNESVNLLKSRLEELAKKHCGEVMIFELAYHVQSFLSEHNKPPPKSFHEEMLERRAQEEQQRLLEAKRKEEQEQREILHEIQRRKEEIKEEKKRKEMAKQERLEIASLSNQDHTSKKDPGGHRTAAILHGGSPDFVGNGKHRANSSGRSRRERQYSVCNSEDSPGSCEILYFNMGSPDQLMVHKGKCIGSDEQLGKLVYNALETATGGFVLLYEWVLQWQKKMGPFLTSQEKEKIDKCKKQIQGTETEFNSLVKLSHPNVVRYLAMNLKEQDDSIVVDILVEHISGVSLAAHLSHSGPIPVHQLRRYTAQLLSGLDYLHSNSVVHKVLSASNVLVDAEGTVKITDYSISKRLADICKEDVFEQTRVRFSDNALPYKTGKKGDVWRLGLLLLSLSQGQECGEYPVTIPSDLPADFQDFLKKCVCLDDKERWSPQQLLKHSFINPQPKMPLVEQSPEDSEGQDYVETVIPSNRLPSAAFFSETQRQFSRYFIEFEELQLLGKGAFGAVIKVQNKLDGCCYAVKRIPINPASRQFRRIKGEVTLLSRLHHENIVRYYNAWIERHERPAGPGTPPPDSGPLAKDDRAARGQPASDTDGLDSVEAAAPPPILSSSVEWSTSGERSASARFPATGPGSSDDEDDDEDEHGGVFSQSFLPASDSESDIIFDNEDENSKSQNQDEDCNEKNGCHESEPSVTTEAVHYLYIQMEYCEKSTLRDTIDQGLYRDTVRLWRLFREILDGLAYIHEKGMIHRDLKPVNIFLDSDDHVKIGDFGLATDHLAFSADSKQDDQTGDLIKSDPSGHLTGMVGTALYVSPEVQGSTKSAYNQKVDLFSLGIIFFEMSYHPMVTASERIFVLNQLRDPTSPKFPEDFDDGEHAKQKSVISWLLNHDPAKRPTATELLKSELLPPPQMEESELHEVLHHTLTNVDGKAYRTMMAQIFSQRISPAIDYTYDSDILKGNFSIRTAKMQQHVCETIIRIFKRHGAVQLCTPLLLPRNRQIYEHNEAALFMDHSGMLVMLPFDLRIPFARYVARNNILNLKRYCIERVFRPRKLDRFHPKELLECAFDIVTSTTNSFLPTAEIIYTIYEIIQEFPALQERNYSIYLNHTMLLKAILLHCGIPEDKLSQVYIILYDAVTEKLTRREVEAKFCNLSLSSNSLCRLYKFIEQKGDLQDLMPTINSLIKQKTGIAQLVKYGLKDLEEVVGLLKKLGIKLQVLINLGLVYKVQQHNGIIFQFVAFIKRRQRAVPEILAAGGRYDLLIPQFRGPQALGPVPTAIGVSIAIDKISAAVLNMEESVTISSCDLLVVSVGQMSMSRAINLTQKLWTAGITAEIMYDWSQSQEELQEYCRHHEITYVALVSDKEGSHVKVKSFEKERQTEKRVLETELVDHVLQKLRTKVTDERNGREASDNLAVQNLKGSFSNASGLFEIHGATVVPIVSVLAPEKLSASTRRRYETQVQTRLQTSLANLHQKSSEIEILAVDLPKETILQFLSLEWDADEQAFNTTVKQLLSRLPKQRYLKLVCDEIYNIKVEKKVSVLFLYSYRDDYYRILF
Procedure: Activity of GCN2 kinase was determined using a TR-FRET kinase activity assay (e.g. Riddle et al. Analytical Biochemistry (2006) 356(1) 108-116). Assays were conducted in 384-well plates (13 μL assay volume) using 2 nM GCN2 (Carna Biosciences), 130 nM GFP-EIf2α (Invitrogen), 0.2 mg/mL E. coli tRNA (sigma) and 1 mM ATP in kinase buffer (Invitrogen). Inhibition of GCN2 was measured by adding serial diluted test compound (final assay concentration of 0.5% DMSO) followed by a 3-hour incubation. Tb-peIF2α (pSer52) antibody (Invitrogen) (2 nM final assay concentration) in kinase buffer containing ETDA (final assay concentration of 20 mM) was added. After a 60 min incubation at room temperature, TR-FRET was monitored using an excitation wavelength of 340 nm and emission wavelengths of 490 nm and 520 nm. The emission ratio (520/490) at each compound concentration of was converted to percent inhibition using controls (i.e. reaction with no test compound and reaction with a known inhibitor) and IC50 values were calculated by fitting a four-parameter sigmoidal curve to the data using Prism (GraphPad software).

PERK kinase, sequence (Q9NZJ5 other isoform, or with tags, fused parts or gaps): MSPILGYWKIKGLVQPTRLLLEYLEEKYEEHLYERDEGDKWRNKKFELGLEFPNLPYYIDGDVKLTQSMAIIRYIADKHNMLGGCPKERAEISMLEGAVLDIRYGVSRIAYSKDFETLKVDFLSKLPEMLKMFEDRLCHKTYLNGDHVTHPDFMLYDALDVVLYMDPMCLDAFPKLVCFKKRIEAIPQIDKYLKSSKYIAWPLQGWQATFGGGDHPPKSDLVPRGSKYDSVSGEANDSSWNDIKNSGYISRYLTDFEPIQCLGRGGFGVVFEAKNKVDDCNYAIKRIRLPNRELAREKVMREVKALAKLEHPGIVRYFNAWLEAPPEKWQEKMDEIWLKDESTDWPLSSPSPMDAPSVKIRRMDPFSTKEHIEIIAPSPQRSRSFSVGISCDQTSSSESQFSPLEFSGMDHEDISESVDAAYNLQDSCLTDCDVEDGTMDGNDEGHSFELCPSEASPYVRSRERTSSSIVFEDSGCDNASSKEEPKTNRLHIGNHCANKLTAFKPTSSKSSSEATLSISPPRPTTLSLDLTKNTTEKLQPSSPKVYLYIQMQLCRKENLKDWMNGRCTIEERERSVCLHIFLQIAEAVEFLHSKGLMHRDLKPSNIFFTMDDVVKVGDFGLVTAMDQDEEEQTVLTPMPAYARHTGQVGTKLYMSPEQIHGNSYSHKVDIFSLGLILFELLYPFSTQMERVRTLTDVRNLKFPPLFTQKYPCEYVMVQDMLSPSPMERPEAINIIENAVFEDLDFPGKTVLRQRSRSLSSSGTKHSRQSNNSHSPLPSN

Structure (SMILES) | IC50 [1] [nM] | IC50 [2] [nM]
CNc1ncc2cc(-c3cccc(NS(=O)(=O)c4cc(Cl)cnc4OC)c3F)c(NC3COC3)nc2n1 [Example 98] | 500 to 1000 | 100 to 500
CNc1ncc2cc(-c3cccc(NS(=O)(=O)c4cc(Cl)cnc4OC)c3F)c(NCC3COC3)nc2n1 [Example 99] | 100 to 500 | 100 to 500
CNCCNc1nc2nc(NC)ncc2cc1-c1cccc(NS(=O)(=O)c2cc(Cl)cnc2OC)c1F [Example 101] | 1000 to 10000 | 100 to 500
CNc1ncc2cc(-c3cc(F)cc(NS(=O)(=O)c4cc(Cl)cnc4OC)c3)c(OC)nc2n1 [Example 103] | 100 to 500 | 100 to 500
CNc1nc2nc(N)ncc2cc1-c1cc(Cl)cc(NS(=O)(=O)c2cc(Cl)cnc2OC)c1 [Example 104] | 1000 to 10000 | 1000 to 10000
CNc1ncc2cc(-c3cc(F)cc(NS(=O)(=O)c4cc(Cl)cnc4OC)c3)c(NCCOC)nc2n1 [Example 105] | 1000 to 10000 | 100 to 500
CNc1ncc2cc(-c3cc(F)cc(NS(=O)(=O)c4cc(Cl)cnc4OC)c3)c(NC[C@@H](C)OC)nc2n1 [Example 107] | 1000 to 10000 | 500 to 1000
CNc1ncc2cc(-c3cc(F)cc(NS(=O)(=O)c4cc(Cl)cnc4OC)c3)c(NC[C@H](C)OC)nc2n1 [Example 108] | 1000 to 10000 | 500 to 1000
CNc1ncc2cc(-c3cccc(NS(=O)(=O)c4cc(Cl)cc(C(N)=O)c4Cl)c3F)c(NC)nc2n1 [Example 112] | 1000 to 10000 | 1000 to 10000
CNc1nc2nc(NCC(F)(F)F)ncc2cc1-c1cccc(NS(=O)(=O)c2cc(Cl)cnc2OC)c1F [Example 116] | 100 to 500 | ≤ 100
CNc1nc2nc(NC3CCC3)ncc2cc1-c1cccc(NS(=O)(=O)c2cc(Cl)cnc2OC)c1F [Example 118] | 100 to 500 | ≤ 100
CNc1nc2nc(NC3CCCC3)ncc2cc1-c1cccc(NS(=O)(=O)c2cc(Cl)cnc2OC)c1F [Example 119] | 100 to 500 | ≤ 100
CNc1ncc2cc(-c3cccc(NS(=O)(=O)c4cc(F)cnc4OC)c3F)c(NC)nc2n1 [Example 122] | 100 to 500 | ≤ 100
CNc1ncc2cc(-c3cccc(NS(=O)(=O)c4cc(Cl)cnc4OC4COC4)c3F)c(NC)nc2n1 [Example 125] | 500 to 1000 | 100 to 500
COc1cc(OC)c(S(=O)(=O)Nc2cccc(-c3cc4cnc(N)nc4nc3OC)c2F)cc1Cl [Example 126] | 500 to 1000 | 1000 to 10000
CNc1ncc2cc(-c3cccc(NS(=O)(=O)c4cc(C(C)=O)ccc4Cl)c3F)c(NC)nc2n1 [Example 133] | 100 to 500 | 100 to 500
CNc1ncc2cc(-c3cccc(NS(=O)(=O)c4ccc(Cl)nc4OC)c3F)c(NC)nc2n1 [Example 142] | 100 to 500 | 100 to 500
CNc1ncc2cc(-c3ccnc(NS(=O)(=O)c4cc(Cl)cnc4OC)c3F)c(NC)nc2n1 [Example 144] | 100 to 500 | 100 to 500
CNc1ncc2cc(-c3cccc(NS(=O)(=O)c4cc(C#N)ccc4OC)c3F)c(NC)nc2n1 [Example 145] | 500 to 1000 | 100 to 500
CNc1ncc2cc(-c3cccc(NS(=O)(=O)c4cc(Cl)cnc4OC)c3F)c(OCCOC)nc2n1 [Example 147] | 100 to 500 | ≤ 100
CNc1ncc2cc(-c3cccc(NS(=O)(=O)c4cc(C5CC5)cnc4OC)c3F)c(NC)nc2n1 [Example 153] | 100 to 500 | ≤ 100
CNc1ncc2cc(-c3cccc(NS(=O)(=O)c4cc(Cl)cnc4OC4CC4)c3F)c(NC)nc2n1 [Example 154] | 100 to 500 | 100 to 500
CNc1nc2nc(N)ncc2cc1-c1ccnc(NS(=O)(=O)c2cc(Cl)cnc2OC)c1F [Example 155] | 100 to 500 | 100 to 500
CNc1ncc2cc(-c3cccc(NS(=O)(=O)c4cccnc4OC)c3F)c(NC)nc2n1 [Example 156] | 500 to 1000 | 100 to 500
CNc1ncc2cc(-c3cccc(NS(=O)(=O)c4cc(Cl)c[nH]c4=O)c3F)c(NC)nc2n1 [Example 160] | 1000 to 10000 | 500 to 1000
CNc1ncc2cc(-c3cccc(NS(=O)(=O)c4ccc(Cl)cc4OC)c3F)c(NC)nc2n1 [Example 161] | 100 to 500 | 100 to 500
CNc1ncc2cc(-c3cc(NS(=O)(=O)c4cc(Cl)cnc4OC)ccn3)ccc2n1 [Example 163] | 1000 to 10000 | 1000 to 10000
